Data set [1] concerns Bacillus Calmette–Guérin (BCG) (1173P2). Briefly: organism not typed. The data set is classed as cell-based, Mycobacterium bovis.
In data set [2] the test system is Human Umbilical Vein Endothelial (HUVEC) cell line.
Data set [3] has the same test system. Briefly: cells. As to conditions: 24 h, read-out: MTT IC 50.
For data set [4], the system named is pantothenate synthetase (PanC, Rv3602c). To be noted: HTS hits; cited from earlier work.
In a further data set the test system is M. tuberculosis. As to conditions: cited from earlier work; for activity against mychobacterium tuberculosis: both active and persistent form.
[5] abbreviates: 48 h, read-out: MIC 48 h, BCG, alamar blue, colour read after 48 h reincubation.
The mark [6] stands for this setting: 72 h, read-out: BCG MIC, Table 4, same values as 72 h reading.
The mark [7] stands for this setting: 72 h, read-out: MIC 72 h, BCG, alamar blue, colour read after 72 h reincubation.
Setting [8] is: 72 h, read-out: MIC, Mycobacterium bovis BCG, corresponds to 72 h values.

The values below come from paper PMC4277633 (Iranian Journal of Pharmaceutical Research : IJPR, 2015).

Values after ≈ are worked out from the molar mass of the structure shown. Structures can show the parent of a compound that is named as a salt. *1 amine or outer side, *2 acyl side, *3 side chain or, on linkers, in order; H or OH if unused. Where a SMILES comes first, the peptide text is derived from it. Bridges are numbered along the chain shown (N, C = ends). Roman numbers before positions name the chains, in order. [ ]: non-standard residue; d: D form. Actinocin(9to1) = Cc1c2oc3c(C)ccc(C(=O)[*:1])c3nc-2c(C(=O)[*:2])c(N)c1=O; NMeV = CN[C@H](C(=O)O)C(C)C; Sar = CNCC(=O)O

Consider `Nc1ccc2c(c1)Cc1ccccc1-2` [Compound 1e, 2-fluorenamine], for which the MIC came out at 31.2 µg/mL (≈ 172 µM) in data set [1] (setting [5]), 11.7 µg/mL (≈ 64.7 µM) in data set [1] (setting [6]), 11.7 µg/mL (≈ 64.7 µM) in data set [1] (setting [7]) and 11.7 µg/mL (≈ 64.7 µM) in data set [1] (setting [8]). Further, the “selectivity indices (SI)” value in data set [2] is given as at least 10. The IC50 in data set [3] worked out at 726 µg/mL (≈ 4010 µM).
For the compound `O=C(O)/C=C/c1cnc[nH]1` [Compound 1j], the MIC in data set [1] (setting [5]), in data set [1] (setting [6]) and in data set [1] (setting [7]) was 500 µg/mL (≈ 3620 µM) throughout. The “antimycobacterial activity” value in data set [1] (BCG) was “no activity”. For the same compound, the IC50 in data set [3] was found to be 1190 µg/mL (≈ 8590 µM).
As for `COc1cccc2c1C(=O)c1c(O)c3c(c(O)c1C2=O)C[C@@](O)(C(=O)CO)C[C@@H]3O[C@H]1C[C@H](N)[C@H](O)[C@H](C)O1` [doxorubicin, reference compound], in data set [3], the IC50 came to 3.1 µg/mL (≈ 5.7 µM).
With `CCN(CC)CCOC(=O)C(Cc1cccc2ccccc12)CC1CCCO1` (stereo not shown) [nafronyl oxalate], in data set [4], the “activity against pantothenate synthetase” value is listed as “poor activity”.
In the case of `c1ccc2[nH]ccc2c1` [Compound 1c, indole], the MIC in data set [1] (setting [5]) came out at 125 µg/mL (≈ 1070 µM); in data set [1] (setting [6]) it was 46.9 µg/mL (≈ 400 µM); in data set [1] (setting [7]), 46.9 µg/mL (≈ 400 µM); in data set [1] (setting [8]) it was 46.9 µg/mL (≈ 400 µM). For the same compound, the “selectivity indices (SI)” value in data set [2] is reported as at least 10. Also, the “tuberculostatic effect” value in the data set with M. tuberculosis was “comparable with Isoniazid”. Moreover, the IC50 in data set [3] worked out at 573 µg/mL (≈ 4890 µM).
For `O=[N+]([O-])c1cn2c(n1)OC[C@@H](OCc1ccc(OC(F)(F)F)cc1)C2` [PA-8242], in the data set on M. tuberculosis, the “activity against mychobacterium tuberculosis” value was “good in-vitro and in-vivo activity”.
For `Nc1ccccc1` [Compound 1a], the MIC in data set [1] (setting [5]) was found to be 500 µg/mL (≈ 5370 µM); in data set [1] (setting [6]) it was 250 µg/mL (≈ 2680 µM); in data set [1] (setting [7]), 250 µg/mL (≈ 2680 µM). For the same compound, the IC50 in data set [3] is 1040 µg/mL (≈ 11100 µM).
For the compound `Cc1cc(C(=O)O)no1` [Compound 2a, 5-methylisoxazole-3-carboxylic acid], the MIC was 500 µg/mL (≈ 3930 µM) in data set [1] (setting [5]), 125 µg/mL (≈ 983 µM) in data set [1] (setting [6]) and 125 µg/mL (≈ 983 µM) in data set [1] (setting [7]). For the same compound, the “antimycobacterial activity” value in data set [1] (BCG) was “no antimycobacterial activity”. Besides, in data set [3], the IC50 was 1090 µg/mL (≈ 8600 µM).
With `Cc1c2oc3c(C)ccc(C(=O)N[C@@H]4C(=O)N[C@H](C(C)C)C(=O)N5CCC[C@H]5C(=O)N(C)CC(=O)N(C)[C@@H](C(C)C)C(=O)O[C@@H]4C)c3nc-2c(C(=O)N[C@@H]2C(=O)N[C@H](C(C)C)C(=O)N3CCC[C@H]3C(=O)N(C)CC(=O)N(C)[C@@H](C(C)C)C(=O)O[C@@H]2C)c(N)c1=O` [actinomycin D] (I: T[dV]P[Sar][NMeV] / II: T[dV]P[Sar][NMeV]; ester I:1-I:C, II:1-II:C; linker I:N-II:N via Actinocin(9to1)), the “activity against pantothenate synthetase” value in data set [4] was “poor activity”.
Turning to `C[C@]1(COc2ccc(N3CCC(Oc4ccc(OC(F)(F)F)cc4)CC3)cc2)Cn2cc([N+](=O)[O-])nc2O1` [OPC-676833], the “activity against mychobacterium tuberculosis” value with M. tuberculosis was “good in-vitro and in-vivo activity”.
For `O=C1c2ccccc2C(=O)N1CCO` [Compound 1h, N-(2-Hydroxyethyl)-phthalimide], the MIC in data set [1] (setting [5]), in data set [1] (setting [6]) and in data set [1] (setting [7]) was 500 µg/mL (≈ 2620 µM) throughout. Further, the “antimycobacterial activity” value in data set [1] (BCG) is recorded as “did not show good activity”. Moreover, the IC50 in data set [3] was 842 µg/mL (≈ 4400 µM).
`CC[C@@H](CO)NCCN[C@@H](CC)CO` [ethambutol, Ethambutol, reference compound]: the MIC in data set [1] (Bacillus, BCG, read-out: MIC of ethambutol, positive control, table footnote, reading time not given) is 3.12 µg/mL.
Regarding `c1ccc2c(c1)CCN2` [Compound 1d, indoline], the MIC in data set [1] (setting [5]) was 31.2 µg/mL (≈ 262 µM); in data set [1] (setting [6]), 7.81 µg/mL (≈ 65.5 µM); in data set [1] (setting [7]), 7.81 µg/mL (≈ 65.5 µM); in data set [1] (setting [8]), 7.81 µg/mL (≈ 65.5 µM). In addition, the IC50 in data set [3] was found to be 800 µg/mL (≈ 6710 µM).
For the compound `Nc1cccc2c1C(=O)c1ccccc1C2=O` [Compound 1f, 1-aminoanthraquinone], the MIC in data set [1] (setting [5]) worked out at 188 µg/mL (≈ 840 µM); in data set [1] (setting [6]) it was 7.81 µg/mL (≈ 35 µM); in data set [1] (setting [7]), 7.81 µg/mL (≈ 35 µM); in data set [1] (setting [8]), 7.8 µg/mL (≈ 34.9 µM); in data set [1] (Mycobacterium bovis BCG, corresponds to 72 h values), 7.81 µg/mL (≈ 35 µM). Further, the “cytotoxicity in HUVEC cell line” value in data set [2] is “not in acceptable range”. Moreover, the IC50 in data set [3] was 14.2 µg/mL (≈ 63.5 µM).
Turning to `N#Cc1ccccc1N` [Compound 1b], the figures for the MIC in data set [1] (setting [5]), in data set [1] (setting [6]) and in data set [1] (setting [7]) were 500 µg/mL (≈ 4230 µM), 93.8 µg/mL (≈ 794 µM) and 93.8 µg/mL (≈ 794 µM), respectively. The IC50 in data set [3] is 908 µg/mL (≈ 7680 µM).
For the compound `O=C(O)c1cc2ccccc2oc1=O` [Compound 2b, coumarin-3-carboxylic acid], the MIC in data set [1] (setting [5]) amounted to 125 µg/mL (≈ 657 µM); in data set [1] (setting [6]) it was 31.2 µg/mL (≈ 164 µM); in data set [1] (setting [7]), 31.2 µg/mL (≈ 164 µM); in data set [1] (setting [8]) it was 31.2 µg/mL (≈ 164 µM). The “selectivity indices (SI)” value in data set [2] is given as at least 10. Besides, the IC50 in data set [3] stood at 924 µg/mL (≈ 4860 µM).
In the case of `Nc1ccc(Nc2ccccc2)c2c1C(=O)c1ccccc1C2=O` [Compound 1g, 1-amino-4-anilino-9,10-anthraquinone], the MIC was 7.81 µg/mL (≈ 24.8 µM) in data set [1] (setting [5]), below 3.9 µg/mL in data set [1] (setting [6]), below 3.9 µg/mL in data set [1] (setting [7]) and below 3.9 µg/mL in data set [1] (setting [8]). Also, in data set [2], the “selectivity indices (SI)” value is at least 10. In data set [3], the IC50 was 344 µg/mL (≈ 1100 µM).
Consider `NCCCn1ccnc1` [Compound 1i], for which the MIC stood at 250 µg/mL (≈ 2000 µM) in data set [1] (setting [5]), 125 µg/mL (≈ 999 µM) in data set [1] (setting [6]) and 125 µg/mL (≈ 999 µM) in data set [1] (setting [7]). Further, the IC50 in data set [3] was 441 µg/mL (≈ 3520 µM).
